According to the NIST ThermoML archive (doi:10.1021/je8001128):
Numbers after ± are expanded uncertainties. Blank lines part the entries; values can stand above or below the compound they belong to.

How the values were obtained:
[1] = 298.15 K; 101 kPa; Liquid
[2] = wn = mass fraction of the nth substance listed; details: 298.15 K, 101 kPa, Liquid

mass density [1]: 964.78 ± 0.45 kg/m3 | viscosity [1]: 0.3 ± 0.1 mPa·s
Structure (SMILES): COC=O [methyl methanoate]

Structure (SMILES): CCCCn1cc[n+](C)c1.F[B-](F)(F)F [1-butyl-3-methylimidazolium tetrafluoroborate] + CC(C)=O
mass density ([2]; w1 = 0.1724): 846.15 ± 0.96 kg/m3 | viscosity ([2]; w1 = 0.1724): 0.5 ± 0.1 mPa·s | mass density ([2]; w1 = 0.3033): 894.39 ± 1.2 kg/m3 | viscosity ([2]; w1 = 0.3033): 0.7 ± 0.1 mPa·s | mass density ([2]; w1 = 0.495): 970.29 ± 2 kg/m3 | viscosity ([2]; w1 = 0.495): 1.5 ± 0.1 mPa·s | mass density ([2]; w1 = 0.6276): 1026.98 ± 3 kg/m3 | viscosity ([2]; w1 = 0.6276): 3 ± 0.1 mPa·s | mass density ([2]; w1 = 0.677): 1048.91 ± 3.5 kg/m3 | viscosity ([2]; w1 = 0.677): 4 ± 0.1 mPa·s | mass density ([2]; w1 = 0.7197): 1068.29 ± 4 kg/m3 | viscosity ([2]; w1 = 0.7197): 5.2 ± 0.2 mPa·s | mass density ([2]; w1 = 0.7603): 1086.16 ± 4.4 kg/m3 | viscosity ([2]; w1 = 0.7603): 6.9 ± 0.2 mPa·s | mass density ([2]; w1 = 0.7933): 1102.46 ± 4.9 kg/m3 | viscosity ([2]; w1 = 0.7933): 9 ± 0.3 mPa·s | mass density ([2]; w1 = 0.8267): 1118.43 ± 5.4 kg/m3 | viscosity ([2]; w1 = 0.8267): 12 ± 0.3 mPa·s | mass density ([2]; w1 = 0.8536): 1131.38 ± 5.8 kg/m3 | viscosity ([2]; w1 = 0.8536): 15.1 ± 0.4 mPa·s | mass density ([2]; w1 = 0.9024): 1155.29 ± 6.6 kg/m3 | viscosity ([2]; w1 = 0.9024): 25.5 ± 0.7 mPa·s | mass density ([2]; w1 = 0.939): 1174.32 ± 7.2 kg/m3 | viscosity ([2]; w1 = 0.939): 40.1 ± 1.2 mPa·s | mass density ([2]; w1 = 0.9707): 1193.01 ± 7.9 kg/m3 | viscosity ([2]; w1 = 0.9707): 64.7 ± 2 mPa·s | mass density ([2]; w1 = 1): 1211.05 ± 8.6 kg/m3 | viscosity ([2]; w1 = 1): 110.3 ± 6.6 mPa·s

mass density ([2]; w2 = 0): 915.97 ± 0.55 kg/m3 | viscosity ([2]; w2 = 0): 0.4 ± 0.1 mPa·s | mass density ([2]; w2 = 0.1386): 964.5 ± 0.72 kg/m3 | viscosity ([2]; w2 = 0.1386): 0.6 ± 0.1 mPa·s | mass density ([2]; w2 = 0.254): 996.04 ± 1 kg/m3 | viscosity ([2]; w2 = 0.254): 0.9 ± 0.1 mPa·s | mass density ([2]; w2 = 0.4326): 1045.98 ± 2 kg/m3 | viscosity ([2]; w2 = 0.4326): 2 ± 0.1 mPa·s | mass density ([2]; w2 = 0.5703): 1084.58 ± 3 kg/m3 | viscosity ([2]; w2 = 0.5703): 3.6 ± 0.1 mPa·s | mass density ([2]; w2 = 0.622): 1098.9 ± 3.5 kg/m3 | viscosity ([2]; w2 = 0.622): 4.7 ± 0.1 mPa·s | mass density ([2]; w2 = 0.6699): 1112.24 ± 4 kg/m3 | viscosity ([2]; w2 = 0.6699): 6.2 ± 0.2 mPa·s | mass density ([2]; w2 = 0.7149): 1124.8 ± 4.4 kg/m3 | viscosity ([2]; w2 = 0.7149): 8.2 ± 0.2 mPa·s | mass density ([2]; w2 = 0.7526): 1136.01 ± 4.9 kg/m3 | viscosity ([2]; w2 = 0.7526): 10.2 ± 0.3 mPa·s | mass density ([2]; w2 = 0.7875): 1144.94 ± 5.3 kg/m3 | viscosity ([2]; w2 = 0.7875): 13.1 ± 0.4 mPa·s | mass density ([2]; w2 = 0.8204): 1153.95 ± 5.7 kg/m3 | viscosity ([2]; w2 = 0.8204): 16.3 ± 0.5 mPa·s | mass density ([2]; w2 = 0.8766): 1169.55 ± 6.5 kg/m3 | viscosity ([2]; w2 = 0.8766): 25.8 ± 0.7 mPa·s | mass density ([2]; w2 = 0.9243): 1182.88 ± 7.2 kg/m3 | viscosity ([2]; w2 = 0.9243): 40.8 ± 1.2 mPa·s | mass density ([2]; w2 = 0.9648): 1197.7 ± 7.9 kg/m3 | viscosity ([2]; w2 = 0.9648): 63.7 ± 1.9 mPa·s
Structure (SMILES): COC(C)=O [methyl ethanoate] + CCCCn1cc[n+](C)c1.F[B-](F)(F)F

Structure (SMILES): CCCCn1cc[n+](C)c1.F[B-](F)(F)F [1-butyl-3-methylimidazolium tetrafluoroborate]
mass density [1]: 1211.05 ± 8.6 kg/m3 | viscosity [1]: 110.3 ± 6.6 mPa·s

mass density ([2]; w2 = 0): 964.78 ± 0.45 kg/m3 | viscosity ([2]; w2 = 0): 0.3 ± 0.1 mPa·s | mass density ([2]; w2 = 0.1653): 1011.72 ± 0.78 kg/m3 | viscosity ([2]; w2 = 0.1653): 0.5 ± 0.1 mPa·s | mass density ([2]; w2 = 0.2974): 1045.55 ± 1.4 kg/m3 | viscosity ([2]; w2 = 0.2974): 0.9 ± 0.1 mPa·s | mass density ([2]; w2 = 0.4895): 1091.4 ± 2.5 kg/m3 | viscosity ([2]; w2 = 0.4895): 1.9 ± 0.1 mPa·s | mass density ([2]; w2 = 0.6165): 1121.47 ± 3.6 kg/m3 | viscosity ([2]; w2 = 0.6165): 3.5 ± 0.1 mPa·s | mass density ([2]; w2 = 0.6592): 1131.2 ± 4 kg/m3 | viscosity ([2]; w2 = 0.6592): 4.4 ± 0.1 mPa·s | mass density ([2]; w2 = 0.7145): 1143.64 ± 4.6 kg/m3 | viscosity ([2]; w2 = 0.7145): 6.3 ± 0.2 mPa·s | mass density ([2]; w2 = 0.7547): 1152.73 ± 5.1 kg/m3 | viscosity ([2]; w2 = 0.7547): 8.2 ± 0.2 mPa·s | mass density ([2]; w2 = 0.7899): 1160.43 ± 5.5 kg/m3 | viscosity ([2]; w2 = 0.7899): 10.6 ± 0.3 mPa·s | mass density ([2]; w2 = 0.8204): 1167.19 ± 5.9 kg/m3 | viscosity ([2]; w2 = 0.8204): 13.7 ± 0.4 mPa·s | mass density ([2]; w2 = 0.8492): 1173.37 ± 6.2 kg/m3 | viscosity ([2]; w2 = 0.8492): 17.12 ± 0.48 mPa·s | mass density ([2]; w2 = 0.8977): 1182.34 ± 6.9 kg/m3 | viscosity ([2]; w2 = 0.8977): 28.3 ± 0.8 mPa·s | mass density ([2]; w2 = 0.9376): 1192.78 ± 7.5 kg/m3 | viscosity ([2]; w2 = 0.9376): 44.2 ± 1.3 mPa·s | mass density ([2]; w2 = 0.9711): 1202.31 ± 8 kg/m3 | viscosity ([2]; w2 = 0.9711): 68.4 ± 2.2 mPa·s
Structure (SMILES): COC=O [methyl methanoate] + CCCCn1cc[n+](C)c1.F[B-](F)(F)F

Structure (SMILES): CCCCn1cc[n+](C)c1.F[B-](F)(F)F [1-butyl-3-methylimidazolium tetrafluoroborate] + CCOC=O
mass density ([2]; w1 = 1): 1211.05 ± 8.6 kg/m3 | viscosity ([2]; w1 = 1): 110.3 ± 6.6 mPa·s

Structure (SMILES): CCCCn1cc[n+](C)c1.F[B-](F)(F)F [1-butyl-3-methylimidazolium tetrafluoroborate] + COC=O
mass density ([2]; w1 = 1): 1211.05 ± 8.6 kg/m3 | viscosity ([2]; w1 = 1): 110.3 ± 6.6 mPa·s

viscosity [1]: 0.4 ± 0.1 mPa·s
Structure (SMILES): CCOC=O [ethyl methanoate]

viscosity [1]: 0.4 ± 0.1 mPa·s
Structure (SMILES): COC(C)=O [methyl ethanoate]

Structure (SMILES): CC(C)=O [acetone] + CCCCn1cc[n+](C)c1.F[B-](F)(F)F
mass density ([2]; w2 = 0): 785.36 ± 0.81 kg/m3 | viscosity ([2]; w2 = 0): 0.3 ± 0.1 mPa·s

Structure (SMILES): CCCCn1cc[n+](C)c1.F[B-](F)(F)F [1-butyl-3-methylimidazolium tetrafluoroborate] + COC(C)=O
mass density ([2]; w1 = 1): 1211.05 ± 8.6 kg/m3 | viscosity ([2]; w1 = 1): 110.3 ± 6.6 mPa·s

Structure (SMILES): CC(C)=O [acetone]
mass density [1]: 785.36 ± 0.81 kg/m3 | viscosity [1]: 0.3 ± 0.1 mPa·s

mass density ([2]; w2 = 0): 928.48 ± 0.52 kg/m3 | viscosity ([2]; w2 = 0): 0.4 ± 0.1 mPa·s | mass density ([2]; w2 = 0.1384): 961.2 ± 0.72 kg/m3 | viscosity ([2]; w2 = 0.1384): 0.6 ± 0.1 mPa·s | mass density ([2]; w2 = 0.254): 989.2 ± 1 kg/m3 | viscosity ([2]; w2 = 0.254): 1 ± 0.1 mPa·s | mass density ([2]; w2 = 0.4306): 1040.81 ± 1.9 kg/m3 | viscosity ([2]; w2 = 0.4306): 2 ± 0.1 mPa·s | mass density ([2]; w2 = 0.5721): 1082.16 ± 3 kg/m3 | viscosity ([2]; w2 = 0.5721): 3.8 ± 0.1 mPa·s | mass density ([2]; w2 = 0.6278): 1098.26 ± 3.5 kg/m3 | viscosity ([2]; w2 = 0.6278): 5.1 ± 0.2 mPa·s | mass density ([2]; w2 = 0.6729): 1111.27 ± 4 kg/m3 | viscosity ([2]; w2 = 0.6729): 6.5 ± 0.2 mPa·s | mass density ([2]; w2 = 0.7159): 1123.69 ± 4.4 kg/m3 | viscosity ([2]; w2 = 0.7159): 8.5 ± 0.2 mPa·s | mass density ([2]; w2 = 0.751): 1133.73 ± 4.8 kg/m3 | viscosity ([2]; w2 = 0.751): 10.6 ± 0.3 mPa·s | mass density ([2]; w2 = 0.7847): 1143.34 ± 5.2 kg/m3 | viscosity ([2]; w2 = 0.7847): 13.3 ± 0.4 mPa·s | mass density ([2]; w2 = 0.8199): 1153.32 ± 5.7 kg/m3 | viscosity ([2]; w2 = 0.8199): 16.9 ± 0.5 mPa·s | mass density ([2]; w2 = 0.8756): 1169.16 ± 6.5 kg/m3 | viscosity ([2]; w2 = 0.8756): 26.6 ± 0.7 mPa·s | mass density ([2]; w2 = 0.9231): 1183.78 ± 7.2 kg/m3 | viscosity ([2]; w2 = 0.9231): 43.7 ± 1.3 mPa·s | mass density ([2]; w2 = 0.9647): 1198.3 ± 7.9 kg/m3 | viscosity ([2]; w2 = 0.9647): 69 ± 2.3 mPa·s
Structure (SMILES): CCOC=O [ethyl methanoate] + CCCCn1cc[n+](C)c1.F[B-](F)(F)F
